In a melting point compilation (Tetko et al.; mined from patent text by program, amines drawn as free bases though some values may be those of a salt) one finds melting point data, which are given here for 91 molecules.

The melting point is the temperature of the solid-liquid transition. Consider `CCN(C)c1nc2cc(NC(=O)c3c(C(=O)O)cnn3C)ccn2n1`, for which the melting point is over 250 °C.

`CN(C)CCC1CCC2(CC1)Nc1ccc(Cl)cc1S(=O)(=O)N2` (stereo unspecified) yielded a melting point of 234 to 235 °C. On to `O=C1COc2cc3[nH]c(C(=O)N4CCC(Cc5ccc(F)cc5)CC4)cc3cc2N1`, for which the melting point was in the range of 219 to 226 °C. In the case of `CCCc1nc2c(N)nc(C)c(C)c2n1CCCCN(OC)C(=O)c1ccccc1`, the melting point was 136 to 137 °C.

Take `COC(=O)CC(Nc1ccccc1OC)c1cc2ccccc2nc1Cl` (stereo unspecified): the melting point lay within 135 to 137 °C.

In turn, `CCc1ccc2nc(Cl)nc(Nc3ccccc3C)c2c1` displayed a melting point of 177 to 179 °C. Then `Cc1csc(-c2nc3c4ccccc4ccn3c2N)c1`, with 152 to 155 °C. In turn, `O=C(CCN1CCN(c2ccccc2)CC1)NCC(=O)c1ccccc1` displayed a melting point of 126 °C.

Molecule `CCCS(=O)(=O)c1ccccc1S(N)(=O)=O` had a melting point of 122 to 124 °C.

`Cc1cc(Nc2c(C#N)cnc3cc(Br)ccc23)ccc1OCc1ccccn1`: the melting point lay in the range of 238 to 241 °C. The molecule `CCN(CC)C(=O)C(=NO)c1c[nH]c2c1ccc1c3ccccc3[nH]c12` gave a melting point of 268 to 269 °C.

Turning to `CC(C)(Oc1ccc(N)cc1)C(=O)O`, the melting point was in the range of 214 to 216 °C.

`COc1ccc(S(=O)(=O)Nc2ccccc2/C=C/c2ccccn2)cc1` had a melting point of 137 to 142 °C. `CC(C)(C)OC(=O)N(Cc1ncccc1C(N)=NO)C(=O)OC(C)(C)C` returned a melting point of 178 to 180 °C. Then `Cc1cc(C)cc(S(=O)(=O)c2cccc(F)c2C#N)c1`, with 167 to 168 °C; and `C#CCNC(=O)c1ncn2c1[C@@H]1CCN1C(=O)c1ccccc1-2`, with 214 to 215 °C. `CC(C)n1nc(-c2c(-c3ccccc3)nn3cccc(OCCN(C)C)c23)ccc1=O` came in with a melting point of 137 to 138 °C. `CCc1ccc(C=C2C(=O)c3cc(O)ccc3OC2c2ccc(CC)cc2)cc1` (stereo unspecified) showed a melting point of 178 to 180 °C. For `COC1=CC23CCN(C)C(Cc4ccc(OC)c(O)c42)C3=CC1C` (stereo unspecified), the melting point is 97 to 100 °C. Turning to `Cc1ccc(Cc2cnc(NCCCNc3ccc(C#N)cn3)[nH]c2=O)cn1`, the melting point lay in the range of 175 to 177 °C. `CCOC(=O)Nc1cc([N+](=O)[O-])ccc1F`: the melting point was in the range of 90 to 92 °C. `CCc1nnc(C(CCN2CC3CCC2CC3)(c2ccccc2)c2ccccc2)o1`: the melting point was in the range of 96 to 98.5 °C.

Take `O=C1CC2CCc3ccncc3C2=NN1c1ccc(C(F)(F)F)cc1` (stereo unspecified): the melting point fell in the range of 141 to 142 °C.

`Cc1nn(-c2cc(Nc3ccc(N)cc3)c(Cl)cc2Cl)c(=O)n1C(F)F` came in with a melting point of 196 to 197 °C. Consider `O=C(O)c1ccc(-c2cnc(-c3ccc(C(F)(F)F)cc3)o2)cc1`, for which the melting point fell in the range of 253 to 254 °C.

Take `CC1(C2CCCC2)Cc2cc(OCCCC#N)c(Cl)c(Cl)c2C1=O` (stereo unspecified): the melting point came out at 112 °C. The molecule `O=c1[nH]cc(Cl)cc1Br` showed a melting point of 170 to 173 °C. The molecule `Fc1ccc(C(=C2SCCCS2)c2ccc(F)cc2)cc1` yielded a melting point of 169 to 171 °C. In turn, `CCc1noc(-c2cn(-c3ccc4c(c3)OCO4)cn2)n1` yielded a melting point of 173 to 174 °C. With `CC(C)(C)OC(=O)c1ccc(N(Cc2ccc(C(=O)O)cc2)Cc2cc(Br)ccc2OCc2ccccc2)cc1`, the melting point came to 110 °C. For `O=C1c2ccccc2C(O)N1CCCl` (stereo unspecified), the melting point was 133 to 134 °C. `CS(=O)(=O)c1ccc(-c2cnn(-c3csc4ccccc34)c(=O)c2-c2ccc(F)cc2)cc1` came in with a melting point of 265 to 267 °C.

In the case of `O=C(NCc1cc(C(F)(F)F)cc(C(F)(F)F)c1)c1cnc(Cl)nc1Cl`, the melting point was in the range of 144 to 145 °C.

In the case of `CCCNCCc1cccc(NS(=O)(=O)c2cccc(Cl)c2)c1`, the melting point lay within 145 to 148 °C. Molecule `CC(C)(C)OC(=O)NCC1CCN(CC2(C(=O)O)CCCC2)CC1` displayed a melting point of 150 °C. As to `O=C(Nc1cnc2[nH]ccc2c1)c1cc2cc(F)ccc2n1Cc1cccc(F)c1`, the melting point lay within 266 to 267 °C.

With `COc1cc2nc(S(=O)Cc3ncc(C)c(N(C)C)c3Cl)[nH]c2cc1OC` (stereo unspecified), the melting point lay in the range of 174 to 175 °C. As for `C#Cc1cccc(Nc2c(C#N)cnc3ccc(OCCOC)c(OCCOC)c23)c1`, the melting point was 150 to 153 °C.

`CN(C)S(=O)(=O)c1cc2[nH]c(=O)c(=O)[nH]c2cc1[N+](=O)[O-]` had a melting point of 318 to 332 °C. In turn, `CCOC(=O)C1=C(c2ccccc2)Nc2n[nH]cc2C1c1ccccc1Cl` (stereo unspecified) displayed a melting point of 214 °C. On to `Nc1nsnc1-c1c(Cl)cccc1Cl`, for which the melting point fell in the range of 95 to 97 °C. As to `N#Cc1ccc(N2C(=O)N(CCF)C(CF)(CF)C2=O)cc1C(F)(F)F`, the melting point was in the range of 136 to 137 °C. Then `Cc1ccc(C(=S)c2ccc3n2CCCC3C#N)cc1` (stereo unspecified), with 118 to 119 °C. Consider `Brc1ccc(OC2CCOCC2)cc1`, for which the melting point was in the range of 53 to 55 °C. In turn, `ON=C(CCC(CN1CCN(c2ncccn2)CC1)C(=NO)c1ccccc1)c1ccccc1` (stereo unspecified) showed a melting point of 75 to 78 °C.

Molecule `Cc1ccc(Br)cc1-c1c(O)c(C)nn(C)c1=O` showed a melting point of 217 to 218 °C. For `COC(=O)C=C(Nc1cc2c(cc1OCc1ccccc1)N(C(=O)OC(C)(C)C)CC2COC(C)=O)C(F)(F)F` (stereo unspecified), the melting point is 114 to 115 °C.

As to `CC(O)CN1C(C)(C)CC(O)CC1(C)C` (stereo unspecified), the melting point fell in the range of 97 to 98 °C. For the molecule `CC(C)(C)OC(=O)N1CCN(c2cc(N)nc(N)n2)CC1`, the melting point was 176 to 179 °C.

The molecule `CN1C(=O)SC(S(=O)(=O)c2cccc3c(Br)cccc23)C1=O` (stereo unspecified) came in with a melting point of 150 to 151 °C. Molecule `O=C(O)c1ncn2c1CN(C(=O)N1CCCC1)c1ccccc1-2` showed a melting point of 197 to 200 °C. `O=C(O)c1cccc(-c2ccc3ncn(Cc4ccc(Cl)cc4Cl)c3n2)c1` yielded a melting point of 258 to 260 °C. In turn, `c1cn2c(n1)-c1sccc1-n1cnc(-c3nc(C4CC4)no3)c1C2` had a melting point of 231 to 233 °C. The figure for `CC(=O)NC1CC(=O)CC(=O)C1` is 181 to 183 °C. The molecule `CCOC(=O)c1cnc2c(cnn2CC)c1OCC` had a melting point of 112 to 115 °C.

In turn, `FC(F)(F)COc1nc(-c2ccccc2)c2cc(Cl)ccc2n1` registered a melting point of 185 to 186 °C. Then `CCCc1nc(Nc2cccc(N(C)C)c2)nc(NC2CCN(S(C)(=O)=O)CC2)n1`, with 134 to 136 °C. `COc1ccc(CCNc2nc(N)c(N)c(N)n2)cc1` gave a melting point of 134 to 138 °C.

`Cc1nnc(F)c(-c2c(F)cc(F)cc2F)c1-c1ccc(Cl)cc1` yielded a melting point of 114 to 115 °C.

With `CCC(=O)c1ccc(-c2ccc(=O)[nH]n2)cc1`, the melting point was 202 to 205 °C. In turn, `Cc1cnc(N)c2nc(C)n(CC(C)C)c12` returned a melting point of 178 to 180 °C. The figure for `O=C(NCc1ccccc1)c1ccnc(NC(=O)c2cccc3ccccc23)c1` is 65 to 67 °C. Turning to `COc1cc2nc(N)nc(-c3ccc(I)cc3)c2cc1OC`, the melting point was 240 to 242 °C.

For the molecule `N#Cc1cnn2c(C(F)(F)F)cc(-c3cccnc3)nc12`, the melting point is 193 °C. The figure for `CNC(=S)SCCC(=O)N1CCC[C@H]1C(=O)OC(C)(C)C` is 129 to 130 °C; for `CC(=O)OC1CSC(Br)C(OC(C)=O)C1OC(C)=O` (stereo unspecified) it is 175 °C; for `Cc1nnc2n1-c1ccccc1C(c1ccccc1Cl)=NC2` it is 212 to 213 °C. `CS(=O)(=O)c1ccc(-c2cc(/C=C/CO)nn2C2CCCCC2)cc1` showed a melting point of 121 °C.

In turn, `Cc1cccc(NC(=O)NC(C(=O)N(CC(=O)OC(C)(C)C)c2ccccc2)c2ccccc2)c1` (racemic) came in with a melting point of 178 °C.

Molecule `Cc1cc2c([N+](=O)[O-])cccc2c(Cl)n1` showed a melting point of 112 °C. Take `CC(C)c1cccc(C(C)C)c1NC(=O)NCC1(c2ccc(N(C)C)cc2)CCCC1`: the melting point was 132 to 133 °C. In the case of `CC(C)(C)c1cc2c(c(-c3nc4ccc(S(=O)(=O)C(F)(F)F)cc4c(=O)[nH]3)c1O)CCO2`, the melting point lay in the range of 235 to 237 °C. Consider `ClCCc1c[nH]c(-c2ccc(OCc3ccccc3)cc2)n1`, for which the melting point was 163 to 165 °C.

`O=C(O)CCCCCCCC(=O)c1c(-c2ccc(O)cc2)sc2cc(O)ccc12` showed a melting point of 154 to 158 °C. The figure for `COC1(c2cc(F)cc(Sc3ccc(C(=NO)c4nccs4)cc3)c2)CCOCC1` is 153 to 154 °C; for `CCOC(=O)c1cc(-c2ccc(Cl)cc2)ns1` it is 87.5 to 89 °C; for `Cc1cc(NC(=O)C(C)(O)COc2cc(Cl)cc(Cl)c2)ccc1[N+](=O)[O-]` (stereo unspecified) it is 141 to 143 °C. As for `Nn1cccc1C(=O)C(F)(F)F`, the melting point fell in the range of 33 to 35 °C. In the case of `CC(C)c1cc(OCCCC(=O)OCc2ccccc2)cc2c1C(=O)N(COc1cc(C(F)(F)F)nn1-c1ccccc1)S2(=O)=O`, the melting point is 99 to 101 °C. With `COc1ccc(C(O)Cc2ccncc2)c2c1OC1(CCCCC1)CC2` (stereo unspecified), the melting point lay within 123 to 133 °C. Then `CSc1sc(-c2cccnc2)c2c1-c1oncc1C(C)(C)C2`, with 123 to 125 °C; and `Cc1cc(C)n(-c2ncc(C)c(Nc3ccc(Cl)cc3)n2)n1`, with 179 to 182 °C. In turn, `CCCSc1ncc(CC(C(=O)O)C(=O)OCC)n1Cc1ccccc1Cl` (stereo unspecified) returned a melting point of 118 to 120 °C. The figure for `CC1CN(c2ccc(N3CC(CNc4nccs4)OC3=O)cc2F)CCC1=CC#N` (stereo unspecified) is 75 to 77 °C; for `CCS(=O)(=O)c1cc(OC)c(OC)c(C(=O)Cl)c1` it is 67 to 68 °C; for `NC(=O)c1cc(OCCNCc2ccccc2)ccc1O` it is 140 °C. In turn, `CCOc1c(C=NO)c(=O)n(C)c(=O)n1C` displayed a melting point of 115 °C. The figure for `CCCc1c[nH]c([C@@H]2Cc3ccccc3N2C(C)=O)n1` is 174 to 175 °C. In the case of `c1ccc2c(c1)CC1(CCN(CCc3c[nH]c4ccccc34)CC1)O2`, the melting point was in the range of 167 to 169 °C. `CCn1cccc1C(=O)O`: the melting point was 77 to 78 °C. Take `Cc1cc(C(=O)N2Cc3cccn3Cc3ccccc32)ccc1C1=CCC2CCC1C2` (stereo unspecified): the melting point is 168 to 169 °C.
